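Results reflect a 48-hour exposure of cells in 96-well plates to compound at five concentrations. At the GI50, growth is halved.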 The source made the active and inactive calls. No stated cut-off is given here; in the data, active = GI50 up to about 1.1 µM and inactive = higher.
How the values were obtained:
Test in all cases: NCI-60 cell line screen, 48 h
OVCAR-5 = tested on: OVCAR-5
SF-539 = tested on: SF-539
UO-31 = tested on: UO-31
OVCAR-4 = tested on: OVCAR-4
SNB-19 = tested on: SNB-19
CAKI-1 = tested on: CAKI-1
SN12C = tested on: SN12C
HCT-116 = tested on: HCT-116
HCT-15 = tested on: HCT-15
SNB-75 = tested on: SNB-75
HCC 2998 = tested on: HCC 2998
HOP-62 = tested on: HOP-62
A498 = tested on: A498
HT-29 = tested on: HT-29
NCI-H460 = tested on: NCI-H460
COLO 205 = tested on: COLO 205
MOLT-4 = tested on: MOLT-4
OVCAR-8 = tested on: OVCAR-8
SR = tested on: SR

| SMILES | GI50 (OVCAR-5) | GI50 (SF-539) | GI50 (UO-31) | GI50 (OVCAR-4) | GI50 (SNB-19) | GI50 (CAKI-1) | GI50 (SN12C) | GI50 (HCT-116) | GI50 (HCT-15) | GI50 (SNB-75) | GI50 (HCC 2998) | GI50 (HOP-62) | GI50 (A498) | GI50 (HT-29) | GI50 (NCI-H460) | GI50 (COLO 205) | GI50 (MOLT-4) | GI50 (OVCAR-8) | GI50 (SR) |
| --- | --- | --- | --- | --- | --- | --- | --- | --- | --- | --- | --- | --- | --- | --- | --- | --- | --- | --- | --- |
| CC1(C)C(CCO)CC1n1ccc(=O)[nH]c1=O (stereo not drawn) | > 100 µM (inactive) | > 100 µM (inactive) | > 100 µM (inactive) | > 100 µM (inactive) | > 100 µM (inactive) | > 100 µM (inactive) | > 100 µM (inactive) | > 100 µM (inactive) | > 100 µM | > 100 µM (inactive) | > 100 µM (inactive) | > 100 µM (inactive) | > 100 µM (inactive) |  |  |  |  |  |  |
| NNC(=O)c1ccc[n+](CCc2ccccc2)c1 | > 100 µM (inactive) |  | > 100 µM (inactive) | > 100 µM (inactive) | > 100 µM (inactive) | > 100 µM (inactive) | > 100 µM (inactive) | > 100 µM (inactive) | > 100 µM | > 100 µM (inactive) | > 100 µM (inactive) | > 100 µM (inactive) | > 100 µM (inactive) | > 100 µM (inactive) | > 100 µM (inactive) | > 100 µM (inactive) | > 100 µM (inactive) | > 100 µM (inactive) |  |
| N=C(N)/N=C(\N)Nc1cnccn1 |  | > 100 µM (inactive) | > 100 µM (inactive) | > 100 µM (inactive) | > 100 µM (inactive) | > 100 µM (inactive) | > 100 µM (inactive) | > 100 µM (inactive) | > 100 µM | > 100 µM (inactive) | > 100 µM (inactive) | > 100 µM (inactive) | > 100 µM (inactive) | > 100 µM (inactive) |  | > 100 µM (inactive) | > 100 µM (inactive) | > 100 µM (inactive) |  |
| CC(C)OP(=O)(OC(C)C)C(C(C)C)N(C)/C(F)=N/C(F)(F)F (stereo not drawn) | > 100 µM (inactive) | > 100 µM (inactive) | > 100 µM (inactive) |  | > 100 µM (inactive) | > 100 µM (inactive) | > 100 µM (inactive) | > 100 µM (inactive) | > 100 µM | > 100 µM (inactive) | > 100 µM (inactive) | > 100 µM (inactive) | > 100 µM (inactive) | > 100 µM (inactive) | > 100 µM (inactive) | > 100 µM (inactive) | 75.7 µM (inactive) | > 100 µM (inactive) |  |
| O=C(c1cc(Cl)cc(Cl)c1)N(C(=O)N1CCN(c2ccccc2)CC1)c1ccccc1 | 22.3 µM (inactive) | 41 µM (inactive) | 18.7 µM (inactive) | 23 µM (inactive) | 53.3 µM (inactive) | 33.1 µM (inactive) | 55.6 µM (inactive) | 24.3 µM (inactive) | 17 µM | > 100 µM (inactive) | 51.9 µM (inactive) | 87.1 µM (inactive) | 21.2 µM (inactive) | 25.6 µM (inactive) | 29.7 µM (inactive) | 17.3 µM (inactive) | 20.1 µM (inactive) | 53.5 µM (inactive) |  |
| O=C1Nc2ccccc2C1Cc1ccc([N+](=O)[O-])cc1 (stereo not drawn) | > 100 µM (inactive) |  | > 100 µM (inactive) | 84.5 µM (inactive) | > 100 µM (inactive) | > 100 µM (inactive) | > 100 µM (inactive) | > 100 µM (inactive) | > 100 µM | > 100 µM (inactive) | > 100 µM (inactive) | > 100 µM (inactive) |  | > 100 µM (inactive) | > 100 µM (inactive) | 50 µM (inactive) | 14.1 µM (inactive) | > 100 µM (inactive) | 19.4 µM (inactive) |
